As a reminder, the melting point is the temperature, or range, at which the solid turns liquid. As for `C[C@@H](n1cnc2cc(NC(=O)C(F)(F)F)c(F)cc2c1=O)[C@](O)(Cn1cncn1)c1ccc(F)cc1F`, the melting point lay in the range of 130 to 132 °C.

As for `CCOC(=O)Cc1ccc(C(=O)c2ccc([N+](=O)[O-])cc2)n1C`, the melting point lay in the range of 103 to 106 °C.

As for `CC(=O)N1CCC(Nc2ccccc2Oc2ccc(Cl)cc2Cl)CC1`, the melting point lay within 145 to 146 °C.

As to `COc1ccc2c(c1)/C(=C\CNC(=O)NC(C)(C)C)C(C)(C)CC2`, the melting point lay in the range of 175 to 176 °C.

`COC(=O)c1cc2cc(N)ccc2o1` had a melting point of 112 to 113 °C.

With `CS(=O)(=O)c1ccc(-c2oc(COc3ccccn3)nc2-c2ccc(F)cc2)cc1`, the melting point is 276 to 278 °C.

The compound `CCOC(=O)COc1cccc(-c2nnc(Nc3cccc(Br)c3)s2)c1` displayed a melting point of 175 °C.

With `O=C1N(CCOCc2ccccc2)CCN1c1ccc(C(F)(F)F)cc1`, the melting point was in the range of 66 to 68 °C.

As for `COC(=O)C(C)(C)Oc1ccc(C(=O)c2cccs2)cc1`, the melting point was determined as 85 °C.

For the compound `CCCCCCCCCCCCCCCC(=O)NC(C(=O)OC)C(O)CCCCCCCCCCCCCCC` (configuration not stated), the melting point turned out to be 80 °C.

For the compound `CC(C)Oc1ccc(-n2c(-c3ccc(C(=O)O)cc3)c(C(=O)O)c3cc(Oc4ccc(C(F)(F)F)cc4)ccc32)cc1`, the melting point is 268 to 270 °C.

`Cc1c(N)nc(=S)n(C)c1N`: the melting point was 178 °C.

`Cc1c(NC(=O)c2ccc(OCC3CC3)cc2)ccc2cc(CN3CCC(C)(O)CC3)[nH]c12` showed a melting point of 195 °C.

In the case of `COc1cc(O)c(C(=O)C=Cc2ccc(C)cc2)c(OC)c1`, the melting point was 130 °C.

Take `CS(=O)(=O)c1cc(CCC(=O)O)nc(-c2nc(=O)c3ccc(Cl)cc3s2)c1`: the melting point came to 229 °C.

For `COCOc1cc(/C=C/S(=O)(=O)NC(=O)OC(C)(C)C)n(Cc2ccc(Cl)cc2Cl)n1`, the melting point lay within 139 to 140 °C.

Regarding `CCC(O)c1cc(C(=O)OC)c(NC(C)=O)cc1C(F)(F)F` (configuration not stated), the melting point was 120 to 122 °C.

With `CCOCCOc1cc(C(O)C#Cc2ccc(C(=O)O)cc2)cc2c1C(C)(C)CCC2(C)C` (configuration not stated), the melting point amounted to 158 °C.

Compound `CC(=O)OC1CSC(Oc2cncc(-c3ccc(C)o3)c2)C(OC(C)=O)C1OC(C)=O` (configuration not stated) registered a melting point of 124 °C.

`Cc1nn(CC(F)(F)COC(=O)N(C)C)c(-c2ccc(F)cc2)c1-c1ccc2c(c1)NC(=O)CO2` displayed a melting point of 146 °C.

Compound `CCc1ccc2nc(Cl)nc(Nc3ccccc3C)c2c1` returned a melting point of 177 to 179 °C.

Regarding `CCCCCCCCC(CC(=O)Nc1ccccc1)CC(C)[N+](=O)[O-]` (configuration not stated), the melting point fell in the range of 71 to 72 °C.

In turn, `CN1C(C(=O)Nc2ccccn2)=C(O)c2sc3ccccc3c2S1(=O)=O` returned a melting point of 222 to 224 °C.

`C[C@H](CSC(=O)c1ccc(Cl)c(S(N)(=O)=O)c1)C(=O)N1CCC[C@H]1C(=O)O` registered a melting point of 143 to 146 °C.

Regarding `CCC(C)(CC(=O)Nc1cccc(OCc2ccc3ccc(F)cc3n2)c1)C(=O)O` (configuration not stated), the melting point was in the range of 179 to 180 °C.

For the compound `COc1ccc(C2CNC(=O)O2)cc1OC1CCCC1` (configuration not stated), the melting point was 111 to 112 °C.

As to `COc1ccc(C=CC(=O)NNC(=O)C=Cc2ccc(OC)cc2)cc1`, the melting point turned out to be 288 °C.

In the case of `CCOC(=O)C1=C[C@@H](OC(CC)CC)[C@H](NC(C)=O)[C@H](O)C1`, the melting point was 129 to 131 °C.

As to `O=C1CCC(N2Cc3c(OCC4Cc5ccccc5O4)cccc3C2=O)C(=O)N1` (configuration not stated), the melting point lay in the range of 258 to 260 °C.

Turning to `O=[N+]([O-])c1ccccc1NC1CCN(Cc2ccccc2)CC1`, the melting point was in the range of 93.4 to 94.6 °C.

The compound `CC(C)c1cccc2cc3ccccc3cc12` returned a melting point of 36 to 36.5 °C.

`COC(=O)c1ccc2c(=O)[nH]c(=O)n(CCCCN3CCC(OC(c4ccccc4)c4ccccc4)CC3)c2c1`: the melting point lay in the range of 192 to 194 °C.

Consider `Clc1ccc(C=Cc2nc3c(s2)NCCCC3)cc1`, for which the melting point was in the range of 188 to 189 °C.

In turn, `COC(=O)c1cc(-c2c(Br)c(C(F)(F)F)n(C)c2Br)c(F)cc1Cl` gave a melting point of 97 °C.

The compound `COc1ccc(N2CCOCC2)c2sc(-c3nc(-c4ccc5c(c4)OCCO5)c[nH]3)nc12` came in with a melting point of 235 to 237 °C.

`CCN(CC)C(=O)OC12Oc3cc(C(C)C)ccc3C1(O)C(=O)c1ccccc12` (configuration not stated) returned a melting point of 127 to 130 °C.

As for `CCCCCC(C=Cc1ccc(C(=O)O)cc1)c1ccc2c(c1)C(C)(C)CCS2` (racemic), the melting point was determined as 146 °C.

Take `CCOC(=O)Cc1cc(O)n[nH]1`: the melting point fell in the range of 114 to 117 °C.

Regarding `CCOC(=O)CCN1C(=O)C(NC(=O)Nc2ccc(Cl)cc2)N=C(c2ccccc2)c2ccccc21` (configuration not stated), the melting point was 251 to 253 °C.

For the compound `Cc1ccc(Cl)cc1NC(=O)OC(C)(C)C`, the melting point lay within 100 to 102 °C.

`COc1ccc(C(=O)Nc2ccccc2)cc1NCc1ccccc1` came in with a melting point of 164 to 165 °C.

In turn, `CN=c1[nH]c(-c2cc(C)c(OCCCc3cc(C)no3)c(C)c2)no1` showed a melting point of 126 to 127 °C.

The compound `CCOCCOc1ccccc1-c1cc(=O)c2cc(C(=O)O)ccc2o1` showed a melting point of 198 to 200 °C.

As for `O=C(Cc1ccc(O)cc1)c1ccc(O)cc1O`, the melting point is 186 °C.

Compound `COc1ccc2c(c1OC)C(=O)O[C@@H]2[C@H]1c2c(c(I)c3c(c2OC)OCO3)CCN1C` returned a melting point of 172 to 173 °C.

The compound `CC(=O)O[C@H]1CC[C@H](c2ccc(CCl)cc2)CC1` showed a melting point of 87 to 89 °C.

`CCCCCCCCCCCCCCCCSCC(CO)OC(=O)NC` (configuration not stated) yielded a melting point of 53 to 55 °C.

As for `COc1ccc(C2=NO[C@](CO)(CCO)C2)cc1OC1CCCC1`, the melting point was in the range of 108 to 109 °C.

As for `CC(C)(COC(=O)COc1ccc(C(=O)CN2Cc3cc(C(N)=S)ccc3C2=O)cc1)NS(=O)(=O)c1cccnc1`, the melting point was 197 to 198 °C.

`O=C1CC(O)CC(C=CC2=C(c3ccc(F)cc3)CC3CCC2C3)O1` (configuration not stated) came in with a melting point of 123 to 127 °C.

For `CCn1cc(C(=O)O)c(=O)c2cc(F)c(N3CC(C)C(CN)C3)cc21` (configuration not stated), the melting point was 245 to 248 °C.

Take `O=C(Nc1ccc2nc(CN3CCCC3)ccc2c1)c1ccc(-c2ccc(F)cc2)cc1`: the melting point is 190 to 193 °C.

`CCN(CC)CCC(=O)C1Nc2cnccc2N(C)n2cccc21` (configuration not stated) returned a melting point of 170 to 172 °C.

Compound `Nc1nnc(-c2cccc(Oc3cccc(COc4ccc(Cl)c(Cl)c4)c3)c2)s1` showed a melting point of 128 to 130 °C.

Consider `CC(C)(CN)c1ccc(C(=O)Nc2cn3cc(Cl)ccc3n2)cc1`, for which the melting point was in the range of 245 to 247 °C.

On to `CC1(C)CCC(C)(C)c2cc(-c3cccc(C#CC(=O)O)c3)ccc21`, for which the melting point lay within 164 to 165 °C.

For `OC(CN1CCC(c2noc3cc(F)ccc23)CC1)CN1CCCc2ccccc21` (configuration not stated), the melting point lay in the range of 170 to 171 °C.

For `CCOC(=O)C(c1ccc(NC(=O)OC(C)(C)C)cc1)N(C)C(C)C` (configuration not stated), the melting point lay within 87 to 88 °C.

The compound `O=C(CN1C(=O)[C@H](Cl)[C@H]1[S@@](=O)Cc1ccccc1)NCCCCCCc1ccc(F)cc1` gave a melting point of 87 to 89 °C.

`CCOC(=O)C(C)=C(C)NC(=O)Nc1cc(C(=O)OC(C)C)c(Cl)cc1F` showed a melting point of 145 to 147 °C.

Compound `O=c1cc(-c2cc3ccccc3[nH]2)oc2ccccc12` yielded a melting point of 157 to 158 °C.

In turn, `Cc1cc2c(cc1C1=NNC(=O)CC1)OCC(=O)N2C` showed a melting point of 211 to 213 °C.

The values above are taken from a melting point compilation (Tetko et al.; mined from patent text by program, amines drawn as free bases though some values may be those of a salt).
